# Laboratory results from patent publication US8716558B2, “Method of altering glycosylation of proteins in response to nojirimycin glucuronide in a plant cell expressing glucuronidase” (Marker Gene Technologies, Inc., priority 1999, dated 2014).
# Assays:
# [1] = tested on: X. campestris CL355 (ampicillin resistant, plasmid pGC9114); test: Differential growth of amp-containing bacteria under PPT block; assay type: cell-based, Xanthomonas campestris; details: M9+0.2% glucose+PPT (20 μg/mL)+M0182 (63 μg/mL)
# X. campestris XN1 = test: Differential growth of non-transformed bacteria under PPT block; assay type: cell-based, Xanthomonas campestris; details: M9+0.2% glucose+PPT (20 μg/mL)+M0182 (63 μg/mL)
# [2] = tested on: LFY::luc transformed Arabidopsis thaliana ecotype Columbia; test: Tissue selective ablation of meristem floral initiator cells; assay type: in vivo; details: 5 mM spray in 0.01% triton X-100, 2 times per day, 7-20 days
# Source text: To test for induction of sterility and prevention of cross-pollination of recombinant plants, Arabiposis thaliana ecotype Columbia are transformed with a plasmid construct containing an LEAFY promoter (LFY) driven firefly luciferase (luc) gene by standard leaf disk techniques (Horsch, et al., 1988). The 2.3 kb BamHI fragment spanning the LFY promoter (Blazquez, et al., 1997) is inserted in front of the luc gene in plasmid pGL3 (available from Promega Corp., Madison, Wis.) using the BglII site. Transgenic plants are generated using the vacuum-filtration method of Berthold, et al. (Berthold, et al., 1993). Regenerated kanamycin-resistant T1 plants carrying LFY::luc are grown up in a greenhouse to allow seed to set. T2 seed of strongly expressing T1 lines are grown in sterile culture on MS medium containing kanamycin at 20° C. for 6 to 10 days in 16 hours light: 8 hours dark cycles and afterward in 12 hour light: 12 hour dark cycles. Plants are treated by spray application to the upper leaves and apical shoot sections, with 5 mM D-luciferin-bromoxynil in 0.01% aqueous triton X-100, 2 times per day, beginning on day 4, for a period of 7-20 days.
# [3] = tested on: CRE BAG 2 cells (β-galactosidase expressing); test: Doubling time in DME:F12 with a defined sugar, MTT assay; assay type: cell-based, Mouse; details: CRE BAG 2, named sugar as only sugar
# Method: (§1) Mouse fibroblast cell line NIH/3T3 and its β-galactosidase expressing derivative CREBAG 2 available from ATCC, Manassas, Va., were grown in media containing either only glucose or only lactose to show the ability to select for β-galactosidase expressing cells by providing only lactose as a carbon source, which must be cleaved into glucose and galactose by β-galactosidase before it can be utilized by the cell.
# (§2) 1:1 Dulbecco's Modified Eagles medium (DME): Ham F12 medium was prepared according to standard formula (Freshney) and with the omission of D-glucose, which was replaced by an equimolar quantity of D-lactose. Cell lines were plated in 2, 12 well plates for each cell type, at a density of 5×10^3 cells per well, in DME containing 10% Calf Serum (CS), and incubated for 4 hours at 37° C. to allow settling and attachment to the plate. Media was then removed and cells were washed once with phosphate buffered saline solution (PBS). […]
# (§3) For the MTT assay, cells are incubated with the MTT reagent, which is turned over by live cells to a purple MTT formazan product. […] Absorbence of each sample is measured against a DMSO blank at 570 nm.
# NIH/3T3 cells [4] = test: as above; assay type: cell-based, Mouse; details: NIH/3T3, named sugar as only sugar
# Method: as §1, §2, §3
# [5] = tested on: 50/50 co-culture of NIH/3T3 and CRE BAG 2 cells; test: Selective ablation, ONPG turnover by remaining cells; assay type: cell-based; details: 15 μg/ml
# Method: (§4) NIH/3T3, CRE BAG 2, or a 50/50 mixture of both cell lines (in co-culture) (Total cell density=6×10^4 cells each) were plated in […]. 12 tissue culture treated glass cover slips were added to each plate, and the cells were allowed to grow in an humidified CO2-incubator (37° C.) for 24 hours. Half the cover slips from each plate were then transferred to separate plates. Cells were treated with 15 μg/ml cycloheximide ? -D-galactopyranoside described in Example 1 (M0147) in media for 14 hours then given fresh media (DME with 10% FCS) for 10 hours. This treatment was repeated twice more, the cover slips were removed from both the M0147 treated and untreated 60 mm plates and placed in 12 well plates. To give an indication of the number of β-galactosidase expressing CREBAG2 cells remaining on the cover slips, the cover slips were incubated with the β-galactosidase substrate ONPG, whose turnover can be measured by the change in absorbance at 420 nm. The cells were rinsed with PBS, then 1 ml of 3.5 mM ONPG in HBSS was added to each well. After 4 hours incubation at 37° C., the solution was removed from each well and the absorbance was measured at 420 nm.
# CRE BAG 2 cells = test: as above; assay type: cell-based; details: 15 μg/ml, 14 hours, three treatments, ONPG turnover 4 hours
# Method: as §4
# NIH/3T3 cells [6] = test: as above; assay type: cell-based; details: 15 μg/ml, 14 hours, three treatments, ONPG turnover 4 hours
# Method: as §4
compound,measurement,setting,value
Phenylacetyl-cephalosporanic acid-glutamate [Example M0182],"final growth, Abs. (600 nm)",[1],0.471
same,"final growth, Abs. (600 nm)",X. campestris XN1,0.101
"N#Cc1cc(Br)c(OCC2SC(c3nc4ccc(O)cc4s3)=N[C@H]2C(=O)O)c(Br)c1 (stereo partly drawn) [D-luciferin-bromoxynil, D-2-(6′-Hydroxybenzothiazol-2′-yl)-D2-5-(2,6-dibromo-4-cyanophenoxy)methylthiazoline-4-carboxylic acid]",floral initiation in apical shoot meristem,[2],no transition to floral initiation
"OC[C@H]1O[C@@H](O[C@H]2[C@H](O)[C@@H](O)C(O)O[C@@H]2CO)[C@H](O)[C@@H](O)[C@H]1O (stereo partly drawn) [lactose, D-lactose]",Doubling Times (Days) of Cells Grown in DME:F12 with 10% dCS,[3],1.13 days
same,Doubling Times (Days) of Cells Grown in DME:F12 with 10% dCS,NIH/3T3 cells [4],0.87 days
"CC1CC(C)C(=O)[C@H]([C@H](CC2CC(=O)NC(=O)C2)OC2OC(CO)C(O)C(O)C2O)C1 (stereo partly drawn) [Example M0147, 3-[2-(3,5-dimethyl-2-oxocyclohexyl)-2-O-(β-D-galactopyranosyl)ethyl]glutarimide]",β-galactosidase activity (number of CREBAG2 cells) in co-culture,[5]; to nearly that of NIH/3T3 cells alone,decrease of β-galactosidase activity
same,Growth (abs @ 420 nm),"[5]; Coculture, 14 hours, three treatments, ONPG turnover 4 hours",.133
same,Growth (abs @ 420 nm),CRE BAG 2 cells,.450
same,Growth (abs @ 420 nm),NIH/3T3 cells [6],.100
